The values that follow come from patent publication US20240041042A1, “1-(PYRIDYL)-5-AZINYLPYRAZOLE DERIVATIVES, AND THEIR USE FOR CONTROL OF UNDESIRED PLANT GROWTH” (Bayer Aktiengesellschaft, priority 2020, published 2024).

Like-named read-outs stand apart in the source and are kept apart here.

Common to all, as to type: in vivo
Series [1] concerns Echinochloa crus-galli (ECHCG). Kind of series: Pre-emergence herbicidal action against ECHCG. The following applies: dosage 320 g/ha. Summed up: (§1)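 Pre-emergence soil-surface spray of compound, formulated as wettable powder or emulsion concentrate, in aqueous suspension or emulsion with 0.5% additive (600 l/ha; rate 320 g/ha or less). Activity rated visually after roughly 3 weeks in the greenhouse as a percentage of untreated controls, 0% meaning no difference.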

Series [2] deals with Matricaria inodora (MATIN). Briefly: Pre-emergence herbicidal action against MATIN. To be noted: dosage 320 g/ha. Summed up:
as §1

Series [3] deals with Setaria viridis (SETVI). Kind of series: Pre-emergence herbicidal action against SETVI. To be noted: dosage 320 g/ha. Summed up:
as §1

For series [4], the system named is Brassica napus (BRSNW). To be noted: crop plant compatibility, in comparison to untreated controls. Summed up:
(§2)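 Scoring: visual, % of untreated control, about 3 weeks after a pre-emergence application to the soil surface. Application used WP or EC formulations diluted in water with 0.5% additive at 600 l/ha; dosage levels are marked by suffixes a, b and c.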

Series [5] has as its system Glycine max (GLXMA). The following applies: pre-emergence, 80 g/ha, crop plant compatibility, in comparison to untreated controls. Summed up: as §2
The test system of series [6] is Oryza sativa (ORYSA). To be noted: pre-emergence, 80 g/ha, crop plant compatibility, in comparison to untreated controls. Summed up: as §2
Series [7] concerns Triticum aestivum (TRZAS). The following applies: pre-emergence, crop plant compatibility, in comparison to untreated controls. Summed up:
as §2

For series [8], the system named is Echinochloa crus-galli (ECHCG). Kind of series: Post-emergence herbicidal action against ECHCG. Summed up:
(§3)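 Values are percent visual activity (0% like control, 100% plants dead) after about 3 weeks in the greenhouse. Treatment: post-emergence spray at one-leaf stage, 600 l/ha spray volume, 0.5% additive, doses 320 g/ha or lower.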

The test system of a further series is Viola tricolor (VIOTR). Kind of series: Post-emergence herbicidal action against VIOTR. The gist of the method:
as §3

Series [9] deals with Oryza sativa (ORYSA). To be noted: crop plant compatibility. Summed up: (§4)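 Test crops were treated 2 to 3 weeks after sowing, once they reached one leaf, by spraying compound in water with 0.5% additive at 600 l/ha. Visual scoring compared them with untreated controls roughly 3 weeks on, and appendices a, b and c denote different doses.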
Series [10] has as its system Glycine max (GLXMA). Kind of series: Post-emergence crop plant compatibility, GLXMA. The following applies: post-emergence, 80 g/ha, effect in comparison to untreated controls. As to the method: (§5) Seeds of monocotyledonous and dicotyledonous weeds and crop plants are placed in sandy loam in plastic or organic planting pots, covered with soil and cultivated in a greenhouse under controlled growth conditions. 2 to 3 weeks after sowing, the test plants are treated at the one-leaf stage. The compounds of the invention, formulated in the form of wettable powders (WP) or as emulsion concentrates (EC), are then sprayed onto the green parts of the plants as aqueous suspension or emulsion with addition of 0.5% additive at a water application rate of 600 l/ha (converted). After the test plants have been kept in the greenhouse under optimum growth conditions for about 3 weeks, the activity of the preparations is rated visually in comparison to untreated controls. For example, 100% activity=the plants have died, 0% activity=like control plants.
(§6) The observed effects on selected crop plants are reported here in comparison to the untreated controls (values in %). The appendices “a”, “b” and “c” give differentiation by dosage used with otherwise the same crop plants tested.

The test system of series [11] is Abutilon theophrasti (ABUTH). Briefly: Post-emergence herbicidal action against ABUTH. To be noted: 320 g/ha, visual rating about 3 weeks after treatment vs untreated controls (100% = plants have died, 0% = like control plants). Summed up: as §3
Series [12] relates to Alopecurus myosuroides (ALOMY). Briefly: Post-emergence herbicidal action against ALOMY. To be noted: visual rating about 3 weeks after treatment vs untreated controls (100% = plants have died, 0% = like control plants). Summed up: as §3
A further series deals with Avena fatua (AVEFA). Briefly: Post-emergence herbicidal action against AVEFA. The following applies: visual rating about 3 weeks after treatment. Summed up: as §3
In series [13] the test system is Digitaria sanguinalis (DIGSA). Kind of series: Post-emergence herbicidal action against DIGSA. To be noted: 320 g/ha, visual rating about 3 weeks after treatment. Summed up:
as §3

A further series relates to Lolium rigidum (LOLRI). Kind of series: Post-emergence herbicidal action against LOLRI. Summed up:
as §3

In series [14] the test system is Matricaria inodora (MATIN). Kind of series: Post-emergence herbicidal action against MATIN. The following applies: dosage 320 g/ha. The gist of the method:
as §3

Series [15] deals with Pharbitis purpurea (PHBPU). Kind of series: Post-emergence herbicidal action against PHBPU. Summed up:
as §3

The subject of series [16] is Polygonum convolvulus (POLCO). Kind of series: Post-emergence herbicidal action against POLCO. The following applies: dosage 320 g/ha. Summed up: as §3
Series [17] deals with Setaria viridis (SETVI). Briefly: Post-emergence herbicidal action against SETVI. The gist of the method: as §3
The subject of series [18] is Verconica persica (VERPE). Kind of series: Post-emergence herbicidal action against VERPE. The gist of the method:
as §3

The test system of series [19] is Triticum aestivum (TRZAS). To be noted: crop plant compatibility, 20 g/ha, effect vs untreated controls. The gist of the method:
as §4

A further series has as its system Zea mays (ZEAMX). The gist of the method: as §4
Series [20] relates to Brassica napus (BRSNW). Kind of series: Post-emergence crop plant compatibility, BRSNW. The following applies: 20 g/ha, effect in comparison to untreated controls. As for the experimental part:
as §5, §6

Where [21] appears, read: 80 g/ha, effect in comparison to untreated controls.

As to `CCOC(=O)CCNC(=O)CSc1nn(-c2ccccn2)c(-c2cncc(F)c2)c1Br` [Example I-82], the “Pre-emergence action against ECHCG in %” value in series [1] is 90%. In addition, the “Pre-emergence action against MATIN in %” value in series [2] turned out to be 90%. Besides, the “Pre-emergence action against SETVI in %” value in the series on Setaria viridis (SETVI) [3] is listed as 90%. The “Pre-emergence action against BRSNW in %” value in the series on Brassica napus (BRSNW) [4] (80 g/ha) and with Brassica napus (BRSNW) [4] (320 g/ha) was 20% each time. The “Pre-emergence action against GLXMA in %” value in the series on Glycine max (GLXMA) [5] is given as 0%. Also, the “Pre-emergence action against ORYSA in %” value in the series on Oryza sativa (ORYSA) [6] is reported as 0%. In addition, the “Pre-emergence action against TRZAS in %” value in series [7] (80 g/ha) worked out at 0%; in series [7] (320 g/ha), 20%. For the same compound, the “Post-emergence action against ECHCG in %” value in series [8] (dosage 320 g/ha) is given as 80%. In addition, the “Post-emergence action against VIOTR in %” value in the series with Viola tricolor (VIOTR) (320 g/ha) is on record as 80%. Further, the “Post-emergence action against ORYSA in %” value in the series on Oryza sativa (ORYSA) [9] (setting [21]) amounted to 20%. The “Post-emergence action against GLXMA in %” value in the series on Glycine max (GLXMA) [10] was determined as 0%.
For `O=C(COc1nn(-c2ncccc2F)c(-c2ccc(F)nc2)c1C1CC1)OCC1CCOC1` (stereo not drawn) [Example I-289], the “Post-emergence action against ABUTH in %” value in series [11] is 80%. In addition, the “Post-emergence action against ALOMY in %” value in series [12] (80 g/ha) is on record as 80%; in [12] (320 g/ha) it was 90%. Further, the “Post-emergence action against AVEFA in %” value in the series on Avena fatua (AVEFA) (80 g/ha) is 80%; in the series with Avena fatua (AVEFA) (320 g/ha), 90%. In [13], the “Post-emergence action against DIGSA in %” value was 80%. Besides, the “Post-emergence action against ECHCG in %” value in series [8] (dosage 80 g/ha) and in series [8] (dosage 320 g/ha) was 80% in each case. Also, the “Post-emergence action against LOLRI in %” value came to 80% with Lolium rigidum (LOLRI) (dosage 80 g/ha) and 90% in the series on Lolium rigidum (LOLRI) (dosage 320 g/ha). Further, the “Post-emergence action against MATIN in %” value in series [14] amounted to 90%. Besides, the “Post-emergence action against PHBPU in %” value in series [15] (dosage 80 g/ha) and in series [15] (dosage 320 g/ha) was 80% in each case. Besides, the “Post-emergence action against POLCO in %” value in series [16] is given as 80%. In addition, the “Post-emergence action against SETVI in %” value with Setaria viridis (SETVI) [17] (dosage 80 g/ha) and in the series on Setaria viridis (SETVI) [17] (dosage 320 g/ha) was 90% each time. The “Post-emergence action against VERPE in %” value was determined as 80% in [18] (320 g/ha, VERPE) and 80% in series [18] (dosage 80 g/ha). Moreover, the “Post-emergence action against VIOTR in %” value with Viola tricolor (VIOTR) (80 g/ha) and in the series on Viola tricolor (VIOTR) (320 g/ha) was 80% throughout. The “Post-emergence action against ORYSA in %” value was 0% in the series on Oryza sativa (ORYSA) [9] (20 g/ha, effect vs untreated controls) and 10% in the series with Oryza sativa (ORYSA) [9] (setting [21]). Besides, the “Post-emergence action against TRZAS in %” value in series [19] is listed as 20%. Besides, the “Post-emergence action against ZEAMX in % (crop plant compatibility)” value in the series on Zea mays (ZEAMX) (20 g/ha, ZEAMX, effect in comparison to untreated controls) came to 0%. Besides, the “Post-emergence action against ZEAMX in %” value in the series on Zea mays (ZEAMX) (crop plant compatibility, 80 g/ha, effect vs untreated controls) stood at 10%. In the series with Brassica napus (BRSNW) [20], the “Post-emergence action against BRSNW in %” value turned out to be 20%.
